System: recombinant NL4-3 virus (Renilla luciferase in nef, Gag P373S)
Test: HIV cell culture assay (luciferase reporter virus in MT-2 cells)
Format: cell-based
Details: NL43
Experimental: HIV cell culture assay—MT-2 cells and 293T cells were obtained from the NIH AIDS Research and Reference Reagent Program. MT-2 cells were propagated in RPMI 1640 media supplemented with 10% heat inactivated fetal bovine serum, […]. The 293T cells were propagated in DMEM media supplemented with 10% heat inactivated fetal bovine serum (FBS), 100 units/ml penicillin G and 100 μg/ml streptomycin. The proviral DNA clone of NL4-3 was obtained from the NIH AIDS Research and Reference Reagent Program. A recombinant NL4-3 virus, in which a section of the nef gene from NL4-3 was replaced with the Renilla luciferase gene, was used as a reference virus. In addition, residue Gag P373 was converted to P373S. Briefly, the recombinant virus was prepared by transfection of the altered proviral clone of NL4-3. Transfections were performed in 293T cells using LipofectAMINE PLUS from Invitrogen (Carlsbad, Calif.), according to manufacturer's instruction. The virus was titered in MT-2 cells using luciferase enzyme activity as a marker. Luciferase was quantitated using the Dual Luciferase kit from Promega (Madison, Wis.), with modifications to the manufacturer's protocol. The diluted Passive Lysis solution was pre-mixed with the re-suspended Luciferase Assay Reagent and the re-suspended Stop & Glo Substrate (2:1:1 ratio). Fifty (50) μL of the mixture was added to each aspirated well on assay plates and luciferase activity was measured immediately on a Wallac TriLux (Perkin-Elmer). Antiviral activities of inhibitors toward the recombinant virus were quantified by measuring luciferase activity in cells infected for 4-5 days with NLRluc recombinants in the presence serial dilutions of the inhibitor. Table 1 is the key for the data in Table 2.

Row | Structure (SMILES) | EC50
1 | C=C(C)[C@@H]1CC[C@]2(C(=O)O)CC[C@]3(C)[C@H](CC[C@@H]4[C@@]5(C)CC=C(c6ccc(-c7cnc8ccccc8c7C(=O)O)cc6)C(C)(C)[C@@H]5CC[C@]43C)[C@@H]12 [Example 4m, 3-(4-((1R,3aS,5aR,5bR,7aR,11aS,11bR,13aR,13bR)-3a-carboxy-5a,5b,8,8,11a-pentamethyl-1-(prop-1-en-2-yl)-2,3,3a,4,5,5a,5b,6,7,7a,8,11,11a,11b,12,13,13a,13b-octadecahydro-1H-cyclopenta[a]chrysen-9-yl)phenyl)quinoline-4-carboxylic acid] | > 1 µM
2 | C=C(C)[C@@H]1CC[C@]2(CO)CC[C@]3(C)[C@H](CC[C@@H]4[C@@]5(C)CC=C(c6cc(C(=O)O)no6)C(C)(C)[C@@H]5CC[C@]43C)[C@@H]12 [Example 9, 5-((1R,3aS,5aR,5bR,7aR,11aS,11bR,13aR,13bR)-3a-(hydroxymethyl)-5a,5b,8,8,11a-pentamethyl-1-(prop-1-en-2-yl)-2,3,3a,4,5,5a,5b,6,7,7a,8,11,11a,11b,12,13,13a,13b-octadecahydro-1H-cyclopenta[a]chrysen-9-yl)isoxazole-3-carboxylic acid] | < 1 µM
3 | C=C(C)[C@@H]1CC[C@]2(C(=O)OC)CC[C@]3(C)[C@H](CC[C@@H]4[C@@]5(C)CC=C(c6ccc(C(=O)O)cc6)C(C)(C)[C@@H]5CC[C@]43C)[C@@H]12 [Example 1b, 4-((1R,3aS,5aR,5bR,7aR,11aS,13aR,13bR)-3a-(methoxycarbonyl)-5a,5b,8,8,11a-pentamethyl-1-(prop-1-en-2-yl)-2,3,3a,4,5,5a,5b,6,7,7a,8,11,11a,11b,12,13,13a,13b-octadecahydro-1H-cyclopenta[a]chrysen-9-yl)benzoic acid] | < 1 µM
4 | C=C(C)[C@@H]1CC[C@]2(C(=O)O)CC[C@]3(C)[C@H](CC[C@@H]4[C@@]5(C)CC=C(c6ccc(CCC(=O)O)cc6)C(C)(C)[C@@H]5CC[C@]43C)[C@@H]12 [Example 4a, (1R,3aS,5aR,5bR,7aR,11aS,11bR,13aR,13bR)-9-(4-(2-carboxyethyl)phenyl)-5a,5b,8,8,11a-pentamethyl-1-(prop-1-en-2-yl)-2,3,3a,4,5,5a,5b,6,7,7a,8,11,11a,11b,12,13,13a,13b-octadecahydro-1H-cyclopenta[a]chrysene-3a-carboxylic acid] | < 1 µM
5 | C=C(C)[C@@H]1CC[C@]2(CO)CC[C@]3(C)[C@H](CC[C@@H]4[C@@]5(C)CC=C(c6ccc(C(=O)O)c(F)c6)C(C)(C)[C@@H]5CC[C@]43C)[C@@H]12 [Example 5m, 2-fluoro-4-((1R,3aS,5aR,5bR,7aR,11aS,11bR,13aR,13bR)-3a-(hydroxymethyl)-5a,5b,8,8,11a-pentamethyl-1-(prop-1-en-2-yl)-2,3,3a,4,5,5a,5b,6,7,7a,8,11,11a,11b,12,13,13a,13b-octadecahydro-1H-cyclopenta[a]chrysen-9-yl)benzoic acid] | < 1 µM
6 | C=C(C)[C@@H]1CC[C@]2(CO)CC[C@]3(C)[C@H](CC[C@@H]4[C@@]5(C)CC=C(c6ccc(C(=O)O)c(C(=O)O)c6)C(C)(C)[C@@H]5CC[C@]43C)[C@@H]12 [Example 5t, 4-((1R,3aS,5aR,5bR,7aR,11aS,11bR,13aR,13bR)-3a-(hydroxymethyl)-5a,5b,8,8,11a-pentamethyl-1-(prop-1-en-2-yl)-2,3,3a,4,5,5a,5b,6,7,7a,8,11,11a,11b,12,13,13a,13b-octadecahydro-1H-cyclopenta[a]chrysen-9-yl)phthalic acid] | < 1 µM
7 | C=C(C)[C@@H]1CC[C@]2(CO)CC[C@]3(C)[C@H](CC[C@@H]4[C@@]5(C)CC=C(c6ccc(C(=O)O)c(C(F)(F)F)c6)C(C)(C)[C@@H]5CC[C@]43C)[C@@H]12 [Example 5s, 4-((1R,3aS,5aR,5bR,7aR,11aS,11bR,13aR,13bR)-3a-(hydroxymethyl)-5a,5b,8,8,11a-pentamethyl-1-(prop-1-en-2-yl)-2,3,3a,4,5,5a,5b,6,7,7a,8,11,11a,11b,12,13,13a,13b-octadecahydro-1H-cyclopenta[a]chrysen-9-yl)-2-(trifluoromethyl)benzoic acid] | < 1 µM
8 | C=C(C)[C@@H]1CC[C@]2(CO)CC[C@]3(C)[C@H](CC[C@@H]4[C@@]5(C)CC=C(c6ccc(C(=O)O)cc6C)C(C)(C)[C@@H]5CC[C@]43C)[C@@H]12 [Example 5r, 4-((1R,3aS,5aR,5bR,7aR,11aS,11bR,13aR,13bR)-3a-(hydroxymethyl)-5a,5b,8,8,11a-pentamethyl-1-(prop-1-en-2-yl)-2,3,3a,4,5,5a,5b,6,7,7a,8,11,11a,11b,12,13,13a,13b-octadecahydro-1H-cyclopenta[a]chrysen-9-yl)-3-methylbenzoic acid] | < 1 µM
9 | C=C(C)[C@@H]1CC[C@]2(C(=O)O)CC[C@]3(C)[C@H](CC[C@@H]4[C@@]5(C)CC=C(c6ccc(NC(=O)CCC(=O)O)cc6)C(C)(C)[C@@H]5CC[C@]43C)[C@@H]12 [Example 4b, (1R,3aS,5aR,5bR,7aR,11aS,11bR,13aR,13bR)-9-(4-(3-carboxypropanamido)phenyl)-5a,5b,8,8,11a-pentamethyl-1-(prop-1-en-2-yl)-2,3,3a,4,5,5a,5b,6,7,7a,8,11,11a,11b,12,13,13a,13b-octadecahydro-1H-cyclopenta[a]chrysene-3a-carboxylic acid] | > 1 µM
10 | C=C(C)[C@@H]1CC[C@]2(C(=O)O)CC[C@]3(C)[C@H](CC[C@@H]4[C@@]5(C)CC=C(c6cccc(CCC(=O)O)c6)C(C)(C)[C@@H]5CC[C@]43C)[C@@H]12 [Example 4k, (1R,3aS,5aR,5bR,7aR,11aS,11bR,13aR,13bR)-9-(3-(2-carboxyethyl)phenyl)-5a,5b,8,8,11a-pentamethyl-1-(prop-1-en-2-yl)-2,3,3a,4,5,5a,5b,6,7,7a,8,11,11a,11b,12,13,13a,13b-octadecahydro-1H-cyclopenta[a]chrysene-3a-carboxylic acid] | < 1 µM
11 | C=C(C)[C@@H]1CC[C@]2(CO)CC[C@]3(C)[C@H](CC[C@@H]4[C@@]5(C)CC=C(c6ccc(C(=O)O)cc6Cl)C(C)(C)[C@@H]5CC[C@]43C)[C@@H]12 [Example 5n, 3-chloro-4-((1R,3aS,5aR,5bR,7aR,11aS,11bR,13aR,13bR)-3a-(hydroxymethyl)-5a,5b,8,8,11a-pentamethyl-1-(prop-1-en-2-yl)-2,3,3a,4,5,5a,5b,6,7,7a,8,11,11a,11b,12,13,13a,13b-octadecahydro-1H-cyclopenta[a]chrysen-9-yl)benzoic acid] | < 1 µM
12 | C=C(C)[C@@H]1CC[C@]2(C(=O)O)CC[C@]3(C)[C@H](CC[C@@H]4[C@@]5(C)CC=C(c6ccc(S(C)(=O)=O)cc6)C(C)(C)[C@@H]5CC[C@]43C)[C@@H]12 [Example 4j, (1R,3aS,5aR,5bR,7aR,11aS,11bR,13aR,13bR)-5a,5b,8,8,11a-pentamethyl-9-(4-(methylsulfonyl)phenyl)-1-(prop-1-en-2-yl)-2,3,3a,4,5,5a,5b,6,7,7a,8,11,11a,11b,12,13,13a,13b-octadecahydro-1H-cyclopenta[a]chrysene-3a-carboxylic acid] | > 1 µM

— patent publication US8754068B2, “Modified C-3 betulinic acid derivatives as HIV maturation inhibitors” (priority 2010, dated 2014)
